Earlier results in US20030134846A1, “Treatment of trypanosoma brucei with farnesyl protein transferase inhibitors” (Schering Corporation, priority 2001, published 2003).

Details: patients treated for second stage infection; can lead to death

Nc1nc(N)nc(Nc2ccc([As]3SCC(CO)S3)cc2)n1 (stereo not shown) [melarsoprol]
reactive encephalopathy, occurrence in patients: 5-10%
